Reference: patent US9822342B2, “Method of efficiently inducing cardiomyocytes” (KYOTO UNIVERSITY, priority 2013, dated 2017)

Tests used:
Format in all cases: cell-based, human
[1] = system: MYH, 409B2, 606A1, 457C1 and KhES1 cell lines; test: IW and IWDS methods, timing of dissociation/reaggregation (2); conditions: IW method; dissociation at d2.5 to d5; evaluated at d15
Excerpt: (§1) In the modified method for inducing cardiomyocytes (IW) and the IWDS method described above, the timing of the dissociation into single cells and the reaggregation carried out on Day 4 was changed to investigate the effect of the change on pluripotent stem cell lines (KhES1 cell line, KhES3 cell line, MYH cell line, 409B2 cell line, 427F1 cell line, 606A1 cell line, 610B1 cell line, 457C1 cell line, 604A1 cell line, and 648A1 cell line) (FIG. 8). The culture from Day 1 in STEMPRO 34 supplemented with 1% L-glutamine, 150 μg/mL transferrin, 50 μg/mL ascorbic acid, 3.9×10^−3% MTG, 18 ng/mL BMP4, 10 ng/mL bFGF, and 12 ng/mL activin A was carried out for various periods within the range of 1.5 days to 5 days. Thereafter, dissociation and reaggregation of the obtained cells were carried out. That is, dissociation of each cell line was carried out at various times between Day 2.5 (d2.5) and Day 6 (d6) after the induction at intervals of 6 hours, followed by reaggregation culture.
(§2) In the last step, the cells of each cell line were cultured under normal oxygen concentration until d15 in STEMPRO 34 supplemented with 1% L-glutamine, 150 μg/mL transferrin, 50 μg/mL ascorbic acid, 3.9×10^−3% MTG, 10 ng/mL VEGF, and 5 ng/mL bFGF, and evaluated based on the content of cTNT-positive cells.

[2] = system: 427F1, 610B1, 604A1, 648A1 and KhES3 cell lines; test: as above; conditions: IW method; dissociation at d2.5 to d4; evaluated at d15
Excerpt: as §1, §2

[3] = system: 201B7 cell line (iPS cells); test: Cardiomyocyte induction, conventional method (comparative example); cTNT-positive cells by flow cytometry; conditions: Day 20; 1 μM IWP-3 with 10 ng/mL VEGF Day 4 to Day 8; no dissociation/reaggregation
Method: Three days before differentiation induction (Day −3), the 201B7 cell line was treated with Collagenase type B solution (Roche) for 5 minutes, and the solution was then removed, followed by treating the cells with 0.25% trypsin-EDTA (Invitrogen) for 2 to 3 minutes. After washing the cells with PBS solution (Nacalai Tesque), the obtained iPS cells were detached with a cell scraper and recovered. The iPS cells were then plated on a well of a Matrigel-coated 6-well plate, and cultured in MEF (mouse fetal fibroblast)-conditioned medium (MEF-CM) for 3 days.
Subsequently (Day 0), treatment with Collagenase type B solution was carried out for 10 minutes. After removing the solution, the iPS cells were treated with 0.25% trypsin-EDTA for 1 to 2 minutes, and then detached with a cell scraper. STEMPRO 34 (Invitrogen) supplemented with 1% L-glutamine (Invitrogen), 150 μg/mL transferrin (Roche), 50 μg/mL ascorbic acid (Sigma), 3.9×10^−3% MTG (1-Thyoglycerol) (Sigma), 10 μM Rock inhibitor (Y-27632, Wako), and 2 ng/mL BMP4 (R&D) was added to the cells, and the cells were then divided into small clusters by pipetting. The resulting cell clusters were transferred to a well of a low-adhesion […], and culture was carried out at 37° C. under 5% oxygen to prepare embryoid bodies (EBs). […]
(§3) After the culture (Day 20), the obtained cells were evaluated. […]

[4] = system: 201B7 cell line (iPS cells); test: Modified method for inducing cardiomyocytes (IW); cTNT-positive cells by flow cytometry; conditions: Day 20
Method: After treatment of the 201B7 cell line with CTK solution (ReproCELL) for 2 minutes, the solution was removed. Subsequently, the cells were treated with Accumax (Innovative Cell Technologies) for 5 minutes, and dissociated into single cells by pipetting. The cells were recovered by centrifugation, and plated on a low-adhesion 96-well dish (Corning) at 2500 cells/well. Culture was carried out at 37° C. under 5% oxygen in STEMPRO 34 supplemented with 1% L-glutamine, 150 μg/mL transferrin, 50 μg/mL ascorbic acid (Sigma), 3.9×10^−3% MTG, 10 μM Rock inhibitor, 2 ng/mL BMP4 (R&D), and 0.50% Matrigel (Growth Factor Reduced), to allow formation of EBs (Day 0). It was found, in this culture, that the efficiency of induction of cardiomyocytes decreases in cases where the EB cells are formed from not more than 1000 cells or not less than 4000 cells per well.
On the next day (Day 1), an equal volume of STEMPRO 34 supplemented with 1% L-glutamine, 150 μg/mL transferrin, 50 μg/mL ascorbic acid, 3.9×10^−3% MTG, 18 ng/mL BMP4, 10 ng/mL bFGF, and 12 ng/mL activin A was added to the 96-well plate in which the EBs were cultured, and culture was carried out at 37° C. under 5% oxygen for 3 days.
Subsequently (Day 4), the obtained EBs were allowed to naturally precipitate, and the medium was removed. […]
as §3

In the case of `Cc1ccc2nc(NC(=O)CSc3nc4c(c(=O)n3-c3ccc(F)cc3)SCC4)sc2c1` [IWP-3], the “efficiency of cardiomyocyte induction (content of cTNT-positive cells)” value [1] is reported as “high efficiency”, the “efficiency of cardiomyocyte induction (content of cTNT-positive cells)” value [2] is reported as “high efficiency” and the “content of cTNT-positive cells” value [3] is reported as 58.6%. The “content of cTNT-positive cells” value ([4]; dissociation/reaggregation on Day 4, 1 μM IWP-3 with 10 ng/mL VEGF for 4 days) was 82.9% and the “content of cTNT-positive cells” value ([4]; no dissociation into single cells on Day 4, medium with 1 μM IWP-3 and 10 ng/mL VEGF) was 69.3%.
